Assay results published in publication PMC7259638, “Characterization of the intestinal absorption of morroniside from Cornus officinalis Sieb. et Zucc via a Caco-2 cell monolayer model” (PLoS ONE, 2020).
Where two headings read alike, the source gives them in different places.

Tests used:
[1] = system: Caco-2 cells; assay: MTT cytotoxicity assay; assay type: cell-based, human; conditions: for Survival Rates (%, mean): Caco-2 cells, five replicates
Experimental: The conditions for Caco-2 cell culture have been described previously. Briefly, Caco-2 cells were cultured in a humidified atmosphere of 5% CO2 and 95% air at 37 °C. The culture medium (DMEM) was supplemented with 10% (v/v) fetal bovine serum, 1% nonessential amino acids, 1% penicillin, and streptomycin. The medium was changed every 2–3 days. When the cell monolayer reached 80–90% confluence, the cells were detached with a solution of trypsin (0.5 mg/mL) and EDTA (0.2 mg/mL) and reseeded at a density of 5×10^4 cells/cm^2.
For the cytotoxicity assay, the cells were incubated in 96-well plates for 24 h. Morroniside dissolved in methanol was diluted with DMEM to terminal concentrations that ranged from 0.1 μM to 200 μM, or CO at 0.63 mg/mL (containing 25 μM morroniside). A negative control group was obtained by the addition of DMEM with methanol at 0.5%(v/v). The cell culture medium treated group was treated only with DMEM. MTT solution was prepared to 1 mg/mL in phosphate-buffered saline and filtered through a 0.2 μm filter. Then, 20 μL of MTT was added into each well. Cells were incubated for 4 h at 37 °C with 5% CO2, 95% air and 100% humidity. After 4 h, the MTT solution was removed and replaced with 150 μL of DMSO. The plate was further incubated for 5 min at room temperature (20 °C), and the optical density of the wells was measured using a plate reader at a wavelength of 490 nm.

[2] = set-up: method as in PMID 17596900, doi:10.1177/1934578X19856526; conditions: rats; oral vs intravenous; cited from earlier work
[3] = system: Caco-2 cell monolayers; assay: Transport of morroniside across Caco-2 cell monolayers (bidirectional, concentration and pH); assay type: in vitro ADME, human; conditions: for PappAB AP-BL: AP to BL; for PappAB AP-BL / PappAB BL-AP: pH 7.4; for PappAB AP-BL / PappAB BL-AP / PappAB: 37 °C, n = 3; for PappAB BL-AP: BL to AP
Experimental: (§1) An initial stock solution of morroniside in methanol was prepared. The stock solution was then diluted with HBSS (pH = 7.4) and the final concentration of methanol in HBSS remained at 0.5%. […] Caco-2 cells were seeded at a density of 5 × 10^4 cells/cm^2 in a 12-well plate. The transepithelial electrical resistance (TEER) value was measured with a Millipore ERS voltameter (Burlington, MA, USA) in order to evaluate and determine monolayer integrity. The monolayers were ready for experiments 19 to 22 days after seeding.
(§2) During incubation, the culture medium was refreshed every other day. The culture medium was discarded, and 500 μL of HBSS was added to each well and incubated for 20 min at 37 °C. Afterward, each well was rinsed two times with HBSS at 37 °C. Three concentrations of morroniside (5, 25 and 100 μM) were added to either the apical (AP, 0.5 mL) or basolateral side (BL, 1.5 mL), wheras the receiving chamber contained the corresponding volume of blank HBSS medium (pH = 7.4). Incubation was performed at 37 °C for 180 min, with shaking at 50 rpm. To assess drug transport from the AP to BL side, after incubation for 5, 15, 30, 45, 60, 90, 120 or 180 min, 50 μL of the solution from the BL or AP side was collected, and replaced with an equal volume of HBSS. To study the effect of pH on morroniside (5, 25 and 100 μM) transport, the experiments were performed in HBSS, which was adjusted to pH 6.0 or pH 7.4 on the AP side depending on the experiment, and to pH 7.4 on the BL side at 37 °C.
(§3) UPLC-MS/MS data acquisition was performed using Analyst 1.5.2 and MultiQuant 2.1.1 software (Applied Biosystems). All data are shown as the mean ± standard deviation, n = 3. The data were analyzed using SPSS 20.0. In the Caco-2 cell model, the rate of transport was obtained from the amount transported versus the time curve using linear regression. The permeability coefficient of each compound was calculated using the following equation: Papp = (dQ/dt)/(A·C0).
(§4) where, dQ/dt is the rate of drug transport, C0 is the initial concentration of the compound in the donor chamber and A represents the surface area of the cell monolayer. The efflux ratio P was determined by calculating the ratio of Papp in the secretory (BA) direction divided by that in the absorptive (AB) direction, according to the following equation: P=PappBA/PappAB

[4] = as above; assay type: in vitro ADME, human; conditions: human
Experimental: as §1, §2, §3, §4

PappAB AP-BL ([3]; 5 μM morroniside): 2.66±0.60 ×10^-6cm/s
PappAB BL-AP ([3]; 5 μM morroniside): 4.10±0.86 ×10^-6cm/s
PappAB AP-BL ([3]; 100 μM morroniside): 1.59±0.41 ×10^-6cm/s
PappAB BL-AP ([3]; 100 μM morroniside): 2.67±0.48 ×10^-6cm/s
PappAB ([3]; AP side pH 6.0, BL side pH 7.4, 25μM morroniside): 0.61±0.15 ×10^-6cm/s
PappAB ([3]; AP side pH 7.4, 100μM morroniside): 1.86±0.33 ×10^-6cm/s
intestinal absorption assessed from Papp level ([3]; Papp values at the level of 10^−6, Caco-2 transwell): poor intestinal absorption
PappAB at pH 7.4 compared with pH 6.0 ([3]; three concentrations (5, 25, 100 μM), p<0.05): significantly higher
Papp A→B at 180 min, 5 μM ([4]; Caco-2, AP side pH 6.0, BL side pH 7.4, 5μM morroniside, 37 °C, n = 3, read-out: PappAB): 0.55 ± 0.07 ×10⁻⁶ cm/s
Papp A→B at 180 min, 100 μM ([4]; Caco-2, AP side pH 6.0, BL side pH 7.4, 100μM morroniside, 37 °C, n = 3, read-out: PappAB): 0.62 ± 0.1 ×10⁻⁶ cm/s
Papp A→B at 180 min, 5 μM ([4]; Caco-2, pH 7.4, 5 μM morroniside, AP to BL, over 3 h, read-out: Papp (AP to BL)): 2.66 ×10⁻⁶ cm/s
Papp A→B at 180 min, 25 μM ([4]; Caco-2, pH 7.4, 25 μM morroniside, AP to BL, pH 7.4, 37 °C, n = 3, read-out: PappAB AP-BL): 1.83 ± 0.65 ×10⁻⁶ cm/s
Papp A→B at 180 min, 100 μM ([4]; Caco-2, pH 7.4, 100 μM morroniside, AP to BL, over 3 h, read-out: Papp (AP to BL)): 1.59 ×10⁻⁶ cm/s
Papp A→B at 180 min, 5 μM ([4]; Caco-2, pH 7.4, AP side pH 7.4, 5μM morroniside, 37 °C, n = 3, read-out: PappAB): 1.88 ± 0.49 ×10⁻⁶ cm/s
Papp A→B at 180 min, 25 μM ([4]; Caco-2, pH 7.4, AP side pH 7.4, 25μM morroniside, 37 °C, n = 3, read-out: PappAB): 1.92 ± 0.52 ×10⁻⁶ cm/s
Papp A→B at 180 min ([4]; Caco-2, pH 7.4, range over 5, 25 and 100 μM, AP-to-BL, read-out: apparent permeability coefficient (Papp) AP-to-BL): 1.59 to 2.66 ×10⁻⁶ cm/s
Papp B→A at 180 min, 5 μM ([4]; Caco-2, pH 7.4, 5 μM morroniside, BL to AP, over 3 h): 4.1 ×10⁻⁶ cm/s
Papp B→A at 180 min, 100 μM ([4]; Caco-2, pH 7.4, 100 μM morroniside, BL to AP, over 3 h): 2.67 ×10⁻⁶ cm/s
Papp B→A at 180 min ([4]; Caco-2, pH 7.4, range over 5, 25 and 100 μM, BL-to-AP, read-out: apparent permeability coefficient (Papp) BL-to-AP): 2.67 to 4.1 ×10⁻⁶ cm/s
Papp B→A at 180 min, 25 μM ([4]; Caco-2, 25 μM morroniside, BL to AP, pH 7.4, 37 °C, n = 3, read-out: PappAB BL-AP): 2.92 ± 0.63 ×10⁻⁶ cm/s
Structure (SMILES): COC(=O)C1=CO[C@@H](O[C@@H]2O[C@H](CO)[C@@H](O)[C@H](O)[C@H]2O)[C@@H]2[C@H](C)O[C@@H](O)C[C@H]12 [morroniside, Morroniside]
Survival Rates (%, mean) ([1]; 0.1 μM): 105.12%
Survival Rates (%, mean) ([1]; 1 μM): 108.33%
Survival Rates (%, mean) ([1]; 5 μM): 101.62%
Survival Rates (%, mean) ([1]; 10 μM): 102.41%
Survival Rates (%, mean) ([1]; 50 μM): 95.21%
Survival Rates (%, mean) ([1]; 100 μM): 91.77%
Survival Rates (%, mean) ([1]; 200 μM): 90.72%
reduction of viability of Caco-2 cells ([1]; highest concentration (200 μM)): 8%
cytotoxicity toward Caco-2 cells (in words) ([1]; morroniside 0.1 to 200 μM): nontoxic
absolute oral bioavailability [2]: 3.6–7.0%
